From patent US9307761B2, “Microbial composition” (Rohm and Haas Company, priority 2011, dated 2016)

How the values were obtained:
Assay type in all cases: cell-based
[1] = tested on: Escherichia coli (10536 strain); test: 15 seconds contact kill assay of actives in water, mean bacterial survival NMBS; settings: for NMBS: alone, 15 seconds contact
[2] = tested on: Escherichia coli (E. coli—ATCC #10536); test: Automated assessment of efficacy in model surfactant medium (2.85% sodium cocoyl glycinate and 1.85% sodium lauroamphoacetate), 15 seconds exposure, delta OD450/OD590; settings: for MBC: Escherichia coli, ATCC10536, 15 s, in 2.85% sodium cocoyl glycinate + 1.85% sodium lauroamphoacetate solution at pH 10, E. coli, read-out: MBC (minimum biocidal concentration); for No. of replicates showing growth (out of 4) / Δ OD 450 nm = OD450 (time = 16 hours) − OD450 (time zero), Mean / Δ OD 590 nm OD590 (time = 16 hours) − OD590 (time zero), Mean / MBC of phenol: model surfactant solution; for No. of replicates showing growth (out of 4) / Δ OD 450 nm = OD450 (time = 16 hours) − OD450 (time zero), Mean / Δ OD 590 nm OD590 (time = 16 hours) − OD590 (time zero), Mean: 15 s exposure; for MBC of phenol: phenol alone, complete bacterial kill against E. coli
Protocol: Micobiocidal Activity of Actives as Per the Invention in a Model Surfactant Medium Test Methodology for Automated Assessment of Efficacy in Surfactant Base
Solutions were prepared such that the concentrations of the surfactant components and test actives were 1.1×the final desired concentration in order to allow for dilution with the bacterial inoculum in the test. The solutions were manually adjusted to […] by dropwise addition of sodium hydroxide solution, as measured with a pH meter at ambient temperature.
Tests were conducted using standard microtiter plate assays using an automated liquid handling system, 270 μl of the surfactant test solution was pipetted into each well of the microtitre plate and 30 μl of the bacterial suspension was then added. After exactly 15 seconds of bacterial exposure, a 30 μl volume of bacterial cells was withdrawn and transferred to 270 μl of D/E quench solution. After 5 minutes in the D/E quench, the optical density (OD) was measured for each plate in turn at two specific wavelengths (450 nm and 590 nm). These provide a dual check of antimicrobial activity, as the OD450 reading is specific for the yellow colour of D/E quench when bacterial growth is observed, whereas OD590 is specific for the initial purple colour of the D/E quench which is retained if no bacterial growth is observed. After the time zero OD measurements, plates were then incubated at 37° C. overnight (16 hours) before repeating the OD measurements. Delta OD values were calculated by subtracting […]. Bacterial growth is observed as art increase in OD450 and a decrease in ΔOD590. To identify antibacterially efficacious systems (those preventing appreciable bacterial growth after incubation), the following threshold changes in OD readings have been adopted: if (1). OD450 increases by less than 0.2 absorbance unit on incubation and (2). OD590 decreases by less than 0.35 unit on incubation. Conversely, where OD450 increases by more than 0.2 AU and OD590 decreases by more than 0.35 unit after incubation, corresponding to a colour shift from purple to yellow, the test system allows bacterial growth and is not deemed efficacious, four replicate measurements in the same plate have been made for each test system. The number of replicate wells showing either bacterial growth or no growth is also readily assessed by eye by following the colour change.
Dose responses for individual components and binary mixtures of actives at a fixed concentration ratio were generated by sequential dilution of liquors with further surfactant solution to obtain a series of endpoints.
In some selected cases, the combinations were also tested at the weight ratio 1:1.

[3] = tested on: Escherichia coli (E. coli—ATCC #10536); test: Synergy tests: high resolution MBC microtiter plate assay, 15 seconds contact, phosphate buffer containing […] dipropylene glycol; settings: E. coli 10536; for SI (Synergy Index = Qa/QA + Qb/QB): at Qa and Qb, <1 synergy, 1 additivity, >1 antagonism
From the text: The concentrations and ratios may also vary under different test conditions or with different test methods.
One measure of synergy is the industrially accepted method described by Kull, F. C.; Eisman, P. C.; Sylwestrowicz, H. D. and Mayer, R. L., in Applied Microbiology 9:538-541 (1961), using the ratio determined by the formula: Qa/QA+Qb/QB=Synergy Index (“SI”) wherein: • QA=concentration of compound A (first component) in percent, acting alone, which produced an end point (MBC of Compound A). • Qa=concentration of compound A in percent, in the mixture, which produced an end point. • QB=concentration of compound B (second component) in percent, acting alone, which produced an end point (MBC of Compound B). • Qb=concentration of compound B in percent, in the mixture, which produced an end point.
When the sum of Qa/QA and Qb/QB is greater than one, antagonism is indicated. […] The lower the SI, the greater is the synergy shown by that particular mixture. The minimum biocidal concentration (MBC) of a microbicide is the lowest concentration tested under a specific set of conditions that provides complete kill of the tested microorganisms.
Synergy tests were conducted using standard microtiter plate assays with phosphate buffer containing 3.5% dipropylene glycol (DPG). In this method, a wide range of combinations of chemicals was tested by conducting high resolution MBC assays of Component (A) in the presence of various concentrations of Component (B). High resolution MBCs were determined by adding varying amounts of microbicide to one column of a microtiter plate and doing subsequent […] dilutions using an automated liquid handling system to obtain a series of closely spaced endpoints. The MBC plate was inoculated one column at a time with the test microorganism. An aliquot of the inoculated well was transferred at 15 seconds to a plate containing a neutralizing agent (D/E Neutralizing Broth), mixed and held for 5 minutes before being transferred to a growth plate containing trypticase soy broth (TSB). The TSB plate was incubated at 37° C. and read for the presence/absence of growth at 24 hours. The lowest level tested that provided complete kill (as evidenced by no growth in the microtitre plate) of the test organisms in 15 seconds is the minimum biocidal concentration (MBC).
The synergy of the combinations of the present invention was determined against a bacterium, Escherichia coli (E. coli—ATCC #10536), at a concentration of approximately 1×10^8 bacteria, per mL. This microorganism is representative of natural contaminants in many consumer and industrial applications.

[4] = single active alone at 0.2% w/v
[5] = single active alone at 0.3% w/v
[6] = single active alone at 0.1% w/v
[7] = single active alone at 0.175% w/v

## CC1=CC[C@@H](CO)[C@H](C)C1 (relative stereo) [Floralol, Trans-4,6-dimethyl-3-Cyclohexene-1-methanol]
[1]; 0.3% w/v, E. coli
  NMBS: 0 log CFU/ml
[1]; 0.4% w/v, E. coli
  NMBS: 0 log CFU/ml
[1]; E. coli, in water, component alone
  MBC (minimum biocidal concentration): 0.3 % w/v
[1]; […] w/v, E. coli
  NMBS: 7.92 log CFU/ml
[1]; antimicrobial alcohol alone, complete bacterial kill against E. coli
  MBC of antimicrobial alcohol: 0.3 % (w/v)
[2]
  MBC: 4000 µg/mL
[2]; [4]
  No. of replicates showing growth (out of 4): 4
  Δ OD 450 nm = OD450 (time = 16 hours) − OD450 (time zero), Mean: −1.43
  Δ OD 590 nm OD590 (time = 16 hours) − OD590 (time zero), Mean: 0.35
[2]; [5]
  No. of replicates showing growth (out of 4): 4
  Δ OD 450 nm = OD450 (time = 16 hours) − OD450 (time zero), Mean: −1.20
  Δ OD 590 nm OD590 (time = 16 hours) − OD590 (time zero), Mean: 0.55
[2]; single active alone at […] w/v
  No. of replicates showing growth (out of 4): 1
  Δ OD 450 nm = OD450 (time = 16 hours) − OD450 (time zero), Mean: −0.29
  Δ OD 590 nm OD590 (time = 16 hours) − OD590 (time zero), Mean: 0.23

## CC1=CC(C)C(CO)C(C)C1 (stereo not shown) [2,4,6-trimethyl-3-cyclohexene-1-methanol]
[3]
  SI (Synergy Index = Qa/QA + Qb/QB): 1.00
[2]
  MBC: 4000 µg/mL
[2]; [4]
  No. of replicates showing growth (out of 4): 4
  Δ OD 450 nm = OD450 (time = 16 hours) − OD450 (time zero), Mean: −1.50
  Δ OD 590 nm OD590 (time = 16 hours) − OD590 (time zero), Mean: 0.29
[2]; single active alone at […] w/v
  No. of replicates showing growth (out of 4): 4

## CC1=CCC(C(C)CO)CC1 (stereo not shown) [2-(4-methylcyclohex-3-enyl)propan-1-ol]
[3]
  SI (Synergy Index = Qa/QA + Qb/QB): 1.00

## CCCc1ccccc1O [2-propyl phenol]
[1]; phenolic compound alone, complete bacterial kill against E. coli
  MBC of phenolic compound: 0.125 % (w/v)

## CCC(C)c1ccccc1O (stereo not shown) [2-sec-butyl phenol]
[2]
  MBC of phenol: 0.175 % (w/v)

## CCC(C)c1ccccc1O (stereo not shown) [2-sec-butylphenol]
[2]; [6]
  No. of replicates showing growth (out of 4): 4
  Δ OD 450 nm = OD450 (time = 16 hours) − OD450 (time zero), Mean: −1.44
  Δ OD 590 nm OD590 (time = 16 hours) − OD590 (time zero), Mean: 0.36

## CC(C)(C)c1ccccc1O [2-ter-butylphenol]
[2]; [7]
  No. of replicates showing growth (out of 4): 4
  Δ OD 450 nm = OD450 (time = 16 hours) − OD450 (time zero), Mean: −1.08
  Δ OD 590 nm OD590 (time = 16 hours) − OD590 (time zero), Mean: 0.57

## Cc1ccc(C(C)(C)C)c(O)c1 [2-tert-butyl-5-methylphenol]
[2]
  MBC of phenol: 0.2 % (w/v)

## CC(C)(C)c1ccccc1O [2-tert-butylphenol]
[3]
  SI (Synergy Index = Qa/QA + Qb/QB): 1.00

## CC(C)(C)c1cccc(O)c1 [3-tert-butylphenol]
[3]
  SI (Synergy Index = Qa/QA + Qb/QB): 1.00
[3]; component alone, complete kill in 15 seconds
  MBC of the component acting alone (QA or QB): 0.3 weight %
